Source: patent US20060063794A1, “Method of attenuating graft rejection” (Fujisawa Pharmaceutical Co., Ltd., priority 2004, published 2006)
“Also recorded” adds a separate entry of the source.

Columns and labels:
[1] = system: human kidney transplant recipients; assay: Same trial: safety, adverse events, laboratory values, withdrawals; format: in vivo; settings: for Median serum creatine value: at study end; for Mean hemoglobin level: day 84
Experimental: FK778 and placebo were administered in a double-blind manner. […] Patients in arm 2 received one dose of 600 mg/day and continued on 75 mg/day. Subsequent doses were adjusted to maintain trough levels of FK778 in the range of 100-200 μg/mL (arm 1) and 10-100 μg/mL (arm 2). Trough levels of FK778 were centrally determined. Doses of FK778 were adjusted according to the recommendations of an independent panel. Treatment of adults of both genders was studied in a multi-center, randomized, double-blind trial. Three groups were studied. Group H was treated with high dose FK778/tarcolimus/steroids; Group L was treated with low dose FK778/tarcolimus/steroids; and Group P was treated with placebo/Tacrolimus/steroids. Tacrolimus was given as an initial dose of 0.2 mg/kg per os divided into two equal doses, one pre-operatively and one post-operatively. Subsequent doses were adjusted to reach target Tacrolimus whole blood trough concentrations of 10-20 ng/mL on Days 0-30, and 5-15 ng/mL on Days 31-84. Methylprednisolone was perioperatively administered at 1000 mg i.v. or less and 125 mg on Day 1. A prednisolone equivalent was given orally at 20 mg from Day 2-14, at 15 mg on Day 15-28, at 10 mg from Day 29-42 and 5 mg from Day 43-84. Oral tablets of FK778/placebo were administered in a double-blind manner. […] This was the maximum permitted daily dose of FK778. […] Dose adaptations were to be performed from day 7 onwards. Subsequent doses were adjusted to maintain plasma trough levels of FK778 in the target ranges of 100-200 μg/mL (H) and 10-100 μg/mL (L). The primary efficacy endpoint was the incidence of AR proven by local biopsy over the first 12 weeks. […] On a continuous basis safety was assessed by patient and graft survival, adverse event monitoring, routine laboratory evaluations and vital signs. Treatment emergent adverse events were coded according to the MedDRA dictionary (version 5.0). All analyses were based on the full analysis set which included all patients randomised who received at least one dose of FK778/placebo (intent-to-treat principle). Decreasing Kaplan-Meier plots were provided. Pair-wise comparisons of the incidence of adverse events between the treatment groups were made using Fisher's exact test.

[2] = Same trial: FK778 plasma trough levels; format: in vivo, human
Experimental: Patients in group H received loading doses of 600 mg/day on Day 1 and 2 and continued on 150 mg/day. This was the maximum permitted daily dose of FK778. Patients in group L received 600 mg/day only on Day 1 and continued on 75 mg/day. Dose adaptations were to be performed from day 7 onwards. Subsequent doses were adjusted to maintain plasma trough levels of FK778 in the target ranges of 100-200 μg/mL (H) and 10-100 μg/mL (L).
The assay of FK778 trough concentrations were centrally performed in an independent laboratory and an independent unblinded pharmacokinetic (PK)-panel (Covance, UK) used the plasma FK778 levels to make dose adjustments when necessary. In addition, dummy adjustments in the placebo arm were performed. Concentrations were determined initially every other day, from day 14-42 weekly, and afterwards every other week.

[3] = system: rat cardiac allografts; settings: rats, cited from earlier work
[4] = system: chronic kidney allograft rejection; settings: cited from earlier work
[5] = system: B-cell proliferation; T cells; settings: in vitro, FK778 in combination with Tacrolimus (FK506); cited from earlier work
[6] = system: renal allograft; settings: rats, concomitant 14-day regimen FK778 (10/mg/kg/day) and Tacrolimus (1 mg/k/day); cited from earlier work
[7] = system: CMV; settings: animal models; cited from earlier work

C#CCC/C(O)=C(\C#N)C(=O)Nc1ccc(C(F)(F)F)cc1 [FK778, (2Z)-2-cyano-3-hydroxy-N-[4-(trifluromethyl)phenyl]-2-hepten-6-ynamide]
Overall assessment of the trial ([1]; FK778 with Tacrolimus and corticosteroids, renal transplantation): pharmacologically active, well tolerated, and safe; also recorded: pharmacologically active, well tolerated and safe
Anemias NEC, number of patients ([1]; High level FK778 (group H)): 21
Angina pectoris, number of patients ([1]; High level FK778 (group H)): 1
Hyperkalemia (%) ([1]; High level FK778 (group H)): (4.1) %
Hyperkalemia, number of patients ([1]; High level FK778 (group H)): 2
Hypokalemia (%) ([1]; High level FK778 (group H)): (12.2) %
Hypokalemia, number of patients ([1]; High level FK778 (group H)): 6
Ischemic coronary artery disorders (%) ([1]; High level FK778 (group H)): (4.1) %
Ischemic coronary artery disorders, number of patients ([1]; High level FK778 (group H)): 2
Myocard. Ischemia, number of patients ([1]; High level FK778 (group H)): 1
O. NOS, number of patients ([1]; High level FK778 (group H)): 1
O. hemorrhagic, number of patients ([1]; High level FK778 (group H)): 1
Oesophagilis (%) ([1]; High level FK778 (group H)): (8.2) %
Oesophagilis, number of patients ([1]; High level FK778 (group H)): 4
Reflux O., number of patients ([1]; High level FK778 (group H)): 2
Withdrawn: Adverse event (%) ([1]; High level FK778 (group H)): (18.4) %
Withdrawn: Adverse event, number of patients ([1]; High level FK778 (group H)): 9
Withdrawn: Death (%) ([1]; High level FK778 (group H)): (2.0) %
Withdrawn: Death, number of patients ([1]; High level FK778 (group H)): 1
Withdrawn: Graft failure (%) ([1]; High level FK778 (group H)): (6.1) %
Withdrawn: Graft failure, number of patients ([1]; High level FK778 (group H)): 3
Withdrawn from treatment (%) ([1]; High level FK778 (group H) + Tacrolimus/steroids): (28.6) %
Withdrawn from treatment, number of patients ([1]; High level FK778 (group H) + Tacrolimus/steroids, N=49): 14
Anemias NEC, number of patients ([1]; Low level FK778 (group L)): 17
Angina pectoris, number of patients ([1]; Low level FK778 (group L)): 5
Hyperkalemia (%) ([1]; Low level FK778 (group L)): (11.1) %
Hyperkalemia, number of patients ([1]; Low level FK778 (group L)): 6
Hypokalemia (%) ([1]; Low level FK778 (group L)): (0.0) %
Hypokalemia, number of patients ([1]; Low level FK778 (group L)): 0
Ischemic coronary artery disorders (%) ([1]; Low level FK778 (group L)): (13.0) %
Ischemic coronary artery disorders, number of patients ([1]; Low level FK778 (group L)): 7
Myocard. Infarction, number of patients ([1]; Low level FK778 (group L)): 1
Myocard. Ischemia, number of patients ([1]; Low level FK778 (group L)): 1
Oesophagilis (%) ([1]; Low level FK778 (group L)): (0.0) %
Oesophagilis, number of patients ([1]; Low level FK778 (group L)): 0
Withdrawn: Adverse event (%) ([1]; Low level FK778 (group L)): (13.0) %
Withdrawn: Adverse event, number of patients ([1]; Low level FK778 (group L)): 7
Withdrawn: Graft failure (%) ([1]; Low level FK778 (group L)): (5.6) %
Withdrawn: Graft failure, number of patients ([1]; Low level FK778 (group L)): 3
Withdrawn from treatment (%) ([1]; Low level FK778 (group L) + Tacrolimus/steroids): (25.9) %
Withdrawn from treatment, number of patients ([1]; Low level FK778 (group L) + Tacrolimus/steroids, N=54): 14
Withdrawn: Death, number of patients ([1]; Low level FK778 (group L), one patient died the day after withdrawal): 0
Reversibility of anemia ([1]; after cessation of FK778 treatment): reversible after cessation of FK778 treatment; also recorded: quickly reversed after cessation of FK778 treatment
Systolic and diastolic blood pressure values ([1]; both FK778 arms): trend towards lower
Mean total cholesterol and mean LDL-cholesterol levels, lower compared to placebo group ([1]; both FK778 groups, during the treatment phase): ~20%
Bilirubin levels ([1]; group H): slightly elevated
Median serum creatine value ([1]; group H): 138 µmol/L
Mean hemoglobin level ([1]; group H): 102.6 g/L
Patients who died during the study ([1]; group H, high level FK778): one
Median serum creatine value ([1]; group L): 149 µmol/L
Mean hemoglobin level ([1]; group L): 119 g/L
Patients who died during the study ([1]; group L, low level FK778): one
Liver enzyme values ([1]; throughout the study): no changes
Maximum FK778 plasma trough level ([2]; group H, Day 3): 142.4 µg/mL
Median FK778 plasma trough level ([2]; group H, Day 3): 84.34 µg/mL
Mean FK778 plasma trough level ([2]; group H, Day 3, after loading doses 600 mg/day on Day 1 and 2): 86.97 ± 26.23 µg/mL
Mean FK778 plasma trough level ([2]; group H, Day 7): 93.58 µg/mL
Mean FK778 plasma trough level ([2]; group H, Day 28): 175.66 µg/mL
Median FK778 plasma trough level ([2]; group L, Day 2): 41.35 µg/mL
Mean FK778 plasma trough level ([2]; group L, Day 2, after loading dose 600 mg/day on Day 1): 38.30 ± 21.14 µg/mL
Mean FK778 plasma trough level ([2]; group L, Day 11): 31.53 ± 21.26 µg/mL
Median FK778 plasma trough level ([2]; group L, Day 11): 28.35 µg/mL
Mean FK778 plasma trough level ([2]; group L, Day 42): 62.36 ± 27.60 µg/mL
Median FK778 plasma trough level ([2]; group L, Day 42): 59.36 µg/mL
Prolongation of graft survival ([3]; 20 mg/kg for ten days): about two
Median graft survival ([3]; MNA 715 (20/mg/kg) combined with Tacrolimus (2.4 mg/kg) for ten days): 19 days
Optimal dose ([4]; rat, given for ten days following transplantation): 10 mg/kg/day
Effect on chronic kidney allograft rejection ([4]; rats): prevented chronic kidney allograft rejection; also recorded: reduced functional and histologic chronic kidney allograft rejection
Effect in T cells [5]: antagonistic tendency
Effect on B-cell proliferation [5]: synergistic inhibition of B-cell proliferation
Effect on renal allograft survival [6]: synergistically prolonged renal allograft survival
Effect on CMV disease [7]: attenuates CMV disease
